Earlier results, collected in article PMC3780389 (Experimental neurology, 2012).

Columns and labels:
[1] = system: APP23 transgenic mouse model of AD; conditions: ref Qing, et al., 2008
[2] = system: 3x-Tg AD mice; conditions: ref Green, et al., 2008, Hempen and Brion, 1996
[3] = system: hAPP Tg AD mice; conditions: chronic administration, ref Ricobaraza, et al., 2011

## CCCC(CCC)C(=O)O [Valproic acid]
[1]
  Aβ plaque number: significantly reduce Aβ plaque number

## NC(=O)c1cccnc1 [nicotinamide]
[2]
  Thr231-phosphotau: selectively decreases
  level of acetylated α-tubulin: increases

## sodium 4-phenylbutyrate [sodium 4-phenylbutyrate (4-PBA)]
[3]
  Aβ levels: decreased Aβ levels
